We go through 28 molecules from US8119635B2, “Diazabicyclic central nervous system active agents” (Abbott Laboratories, priority 2000, dated 2012).

For assay [1], the target named is T1, neuronal nicotinic acetylcholine receptors (Rattus norvegicus, UniProt P09483+P12390).
T1 construct: crude synaptic membrane preparations from whole rat brain; from tissue; host or cells: whole rat brain, crude synaptic membranes
Put plainly: Binding of [3H]-cytisine to neuronal nicotinic acetylcholine receptors, crude synaptic membranes from whole rat brain. How it is done: The In Vitro protocols for determination of nicotinic acetylcholine channel receptor binding potencies of ligands were determined as follows.
Washed membranes were stored at −80° C. prior to use. Frozen aliquots were slowly thawed and resuspended in 20 volumes of buffer (containing: 120 mM NaCl, 5 mM KCl, 2 mM MgCl2, 2 mM CaCl2 and 50 mM Tris-Cl, pH 7.4 @[…]). After centrifuging at 20,000×g for 15 minutes, the pellets were resuspended in 30 volumes of buffer.
The test compounds were dissolved in water to make 10 mM stock solutions. Each solution was then diluted (1:100) with buffer (as above) and further taken through seven serial log dilutions to produce test solutions from 10^−5 to 10^−11 M.
Samples were incubated for 60 minutes at 4° C., then rapidly filtered through Whatman GF/B filters presoaked in 0.5% polyethyleneimine using 3×4 mL of ice-cold buffer. The filters are counted in 4 mL of Ecolume® (ICN). Nonspecific binding was determined in the presence of 10 μM (−)-nicotine and values were expressed as a percentage of total binding. IC50 values were determined with the RS-1 (BBN) nonlinear least squares curve-fitting program and IC50 values were converted to Ki values using the Cheng and Prusoff correction (Ki=IC50/(1+[ligand]/Kd of ligand).

Another assay has as its system mice. In words: Mouse hot plate paradigm (analgesia). Format: in vivo. The settings on record: ip, 0.5 h, intraperitoneal, dosed 30 minutes prior to testing, hot plate 55° C., latency until the tenth jump, read-out: (MED) minimally effective dose, mouse hot plate. As for the experimental part:
An in vivo protocol was utilized to determine the effectiveness of nicotinic acetylcholine receptor ligands as analgesic agents in the mouse hot plate paradigm.
Separate groups of mice, (n=8/group) were utilized for each dose group. All drugs were administered by the intraperitoneal route of administration. Test drugs were dissolved in water to make a 6.2 mM stock solution. Animals were dosed with this solution (10 mL/kg body weight) for a 62 micromol/kg dose. Lower doses were administered similarly, following serial dilution of the stock solution in half-log increments. Animals were dosed 30 minutes prior to testing in the hot plate. The hot-plate utilized was an automated analgesia monitor (Model #AHP16AN, Omnitech Electronics, Inc. of Columbus, Ohio). The temperature of the hot plate was maintained at 55° C. and a cut-off time of 180 seconds was utilized. Latency until the tenth jump was recorded as the dependent measure. An increase in the tenth jump latency relative to the control was considered an effect.

Another assay deals with Male Sprague-Dawley rats. Put plainly: Formalin test (analgesia). Type of assay: in vivo. As to conditions: Rattus norvegicus, ip, intraperitoneally 5 minutes before injection of 50 μL 5% formalin into rear paw, nocifensive behaviors, read-out: (MED) minimally effective dose, formalin test. As for the experimental part:
Another in vivo protocol utilized to determine the effectiveness of nicotinic acetylcholine receptor ligands as analgesic agents was the formalin test.
Male Sprague-Dawley rats (Charles River, Portage, Mich.) weighing 200 to 400 grams were used for all experiments. After a 20 minute period of acclimation to individual cages, 50 μL of a 5% formalin solution was injected subcutaneous into the dorsal aspect of one of the rear paws and the rats were then returned to the clear observation cages suspended above mirror panels. […] Phase 1 of the formalin test was defined as the period of time immediately after injection of formalin until 10 minutes after the formalin injection (i.e., 0-10 minutes after formalin). Phase 2 was defined as the 20 minute period from 30 to 50 minutes after formalin injection. The investigator recorded nocifensive behaviors in the injected paw of four animals during the session by observing each animal for one 15 second observation period during each 1 minute interval. Nocifensive behaviors recorded included flinching, licking or biting the injected paw. In dose-response studies, the test compound (or saline) was administered intraperitoneally 5 minutes before injection of formalin.

Structures can show the parent of a compound that is named as a salt. Some results are limits rather than exact numbers.

T1 sequence (P09483 31-630): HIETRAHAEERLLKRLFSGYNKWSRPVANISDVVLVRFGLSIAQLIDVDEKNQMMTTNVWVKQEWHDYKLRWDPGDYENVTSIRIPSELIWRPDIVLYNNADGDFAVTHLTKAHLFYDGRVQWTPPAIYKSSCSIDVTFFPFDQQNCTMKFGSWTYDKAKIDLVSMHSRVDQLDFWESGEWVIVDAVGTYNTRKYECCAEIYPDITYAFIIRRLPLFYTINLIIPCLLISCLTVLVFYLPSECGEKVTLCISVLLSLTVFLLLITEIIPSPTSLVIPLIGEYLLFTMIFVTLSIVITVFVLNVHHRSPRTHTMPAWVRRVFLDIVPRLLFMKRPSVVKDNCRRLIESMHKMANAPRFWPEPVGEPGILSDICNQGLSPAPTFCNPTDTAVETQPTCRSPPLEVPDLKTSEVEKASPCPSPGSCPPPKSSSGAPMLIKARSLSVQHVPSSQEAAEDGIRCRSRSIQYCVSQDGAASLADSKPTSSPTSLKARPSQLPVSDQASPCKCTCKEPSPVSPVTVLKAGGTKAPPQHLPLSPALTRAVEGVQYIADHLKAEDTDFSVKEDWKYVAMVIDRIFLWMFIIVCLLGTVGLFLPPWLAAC
T1 sequence (P12390 25-500): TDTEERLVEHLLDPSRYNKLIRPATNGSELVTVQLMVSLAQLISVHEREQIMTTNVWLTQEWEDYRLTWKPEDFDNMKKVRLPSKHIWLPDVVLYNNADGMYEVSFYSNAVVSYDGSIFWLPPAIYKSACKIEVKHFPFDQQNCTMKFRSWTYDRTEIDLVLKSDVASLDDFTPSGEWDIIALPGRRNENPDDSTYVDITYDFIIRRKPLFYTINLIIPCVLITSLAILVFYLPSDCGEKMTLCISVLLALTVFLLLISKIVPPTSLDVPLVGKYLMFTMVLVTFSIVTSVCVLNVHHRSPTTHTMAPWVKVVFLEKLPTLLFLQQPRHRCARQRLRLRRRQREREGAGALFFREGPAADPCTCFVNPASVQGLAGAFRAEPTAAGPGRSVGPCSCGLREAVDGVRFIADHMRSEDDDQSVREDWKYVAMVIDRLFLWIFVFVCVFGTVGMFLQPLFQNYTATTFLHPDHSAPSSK

As for `Clc1ccc(N2C[C@H]3CCN[C@H]3C2)cn1` (relative stereo) [Example 13, cis-5-(6-chloro-3-pyridinyl)octahydropyrrolo[3,4-b]pyrrole hydrochloride], the Ki (as a rule, the dissociation constant of the complex between target and ligand, obtained from inhibition or displacement) in assay [1] amounted to 1500 pM. The results for the minimal effective dose in the assay on mice and in the assay with Male Sprague-Dawley rats were 6.2 µmol/kg and 0.62 µmol/kg, respectively.
`CCCOc1cncc(N2C[C@H]3CNC[C@H]3C2)c1` [Example 9, cis-2-(5-propoxy-3-pyridinyl)octahydropyrrolo[3,4-c]pyrrole semi(fumarate)]: the affinity in assay [1], expressed as Ki, was 40 pM. For the same molecule, the minimal effective dose in the assay with mice came to 19 µmol/kg.
Taken in the same sequence, the figures for `Cc1cc(N2C[C@H]3CNC[C@H]3C2)cnc1Cl` [Example 11, cis-2-(6-chloro-5-methyl-3-pyridinyl)octahydropyrrolo[3,4-c]pyrrole dihydrochloride] were 40 pM and 6.2 µmol/kg.
As to `Cc1cc(N2C[C@@H]3CCN[C@@H]3C2)cnc1Cl` [Example 26, (3aS,6aS)-5-(6-chloro-5-methyl-3-pyridinyl)octahydropyrrolo[3,4-b]pyrrole hydrochloride], the Ki in assay [1] turned out to be 620 pM. In the assay with mice, the minimal effective dose was 19 µmol/kg.
In assay [1], `Cc1cc(N2C[C@H]3CCN[C@H]3C2)cnc1Cl` [Example 27, (3aR,6aR)-5-(6-chloro-5-methyl-3-pyridinyl)octahydropyrrolo[3,4-b]pyrrole hydrochloride] yielded a Ki of 100 pM. Besides, the minimal effective dose with mice was found to be 1.9 µmol/kg.
In assay [1], `N#Cc1cncc(N2C[C@@H]3CCNC[C@@H]32)c1` [Example 50, 5-[(1R,6S)-3,8-diazabicyclo[4.2.0]oct-8-yl]nicotinonitrile fumarate] came in with a Ki of 510 pM. Further, the minimal effective dose in the assay on Male Sprague-Dawley rats stood at 6.2 µmol/kg.
For `N#Cc1cc(N2C[C@H]3CCN[C@H]3C2)cnc1Br` [Example 51, 5-((3aR,6aR)-hexahydropyrrolo[3,4-b]pyrrol-5(1H)-yl)-2-bromonicotinonitrile fumarate], affinity in assay [1] was put at a Ki of 120 pM. Also, the minimal effective dose in the assay on Male Sprague-Dawley rats stood at 0.62 µmol/kg.
On to `c1cncc(N2C[C@H]3CNC[C@H]32)c1` [Example 52, (1R,5S)-6-(3-pyridinyl)-3,6-diazabicyclo[3.2.0]heptane fumarate], for which the Ki in assay [1] was 1300 pM. For the same molecule, the minimal effective dose with Male Sprague-Dawley rats came to 19 µmol/kg.
As to `Brc1cncc(N2C[C@H]3CNC[C@H]32)c1` [Example 53, (1R,5S)-6-(5-bromo-3-pyridinyl)-3,6-diazabicyclo[3.2.0]heptane fumarate], the Ki in assay [1] turned out to be 3100 pM. In addition, the minimal effective dose in the assay with Male Sprague-Dawley rats was over 19 µmol/kg.
In assay [1], `Clc1ccc(N2C[C@@H]3CNC[C@@H]32)cn1` [Example 54, (1S,5R)-6-(6-chloro-3-pyridinyl)-3,6-diazabicyclo[3.2.0]heptane fumarate] showed a Ki of 1300 pM. In the assay on Male Sprague-Dawley rats, the minimal effective dose is 1.9 µmol/kg.
`c1cncc(N2C[C@@H]3CNC[C@@H]32)c1` [Example 55, (1S,5R)-6-(3-pyridinyl)-3,6-diazabicyclo[3.2.0]heptane fumarate] returned a Ki in assay [1] of 720 pM. The minimal effective dose in the assay on Male Sprague-Dawley rats is over 19 µmol/kg.
Taken in the same sequence, the figures for `C=Cc1cncc(N2C[C@H]3CCN[C@H]3C2)c1` [Example 56, (3aR,6aR)-5-(5-vinyl-3-pyridinyl)octahydropyrrolo[3,4-b]pyrrole dihydrochloride] were 620 pM and 1.9 µmol/kg.
`Cc1cncc(N2C[C@H]3CCN[C@H]3C2)c1` [Example 58, (3aR,6aR)-5-(5-methyl-3-pyridinyl)octahydropyrrolo[3,4-b]pyrrole trihydrochloride] yielded a Ki in assay [1] of 530 pM. In addition, the minimal effective dose with Male Sprague-Dawley rats came out at 1.9 µmol/kg.
In assay [1], `Cc1cc(N2C[C@H]3CCN[C@H]3C2)cnc1Br` [Example 60, (3aR,6aR)-5-(6-bromo-5-methyl-3-pyridinyl)octahydropyrrolo[3,4-b]pyrrole dihydrochloride] came in with a Ki of 110 pM. Further, in the assay on Male Sprague-Dawley rats, the minimal effective dose turned out to be 0.62 µmol/kg.
In the case of `CCc1cncc(N2C[C@H]3CCN[C@H]3C2)c1` [Example 63, (3aR,6aR)-5-(5-ethyl-3-pyridinyl)octahydropyrrolo[3,4-b]pyrrole], in assay [1], the affinity, expressed as Ki, was 560 pM. Moreover, the minimal effective dose in the assay with Male Sprague-Dawley rats was over 19 µmol/kg.
Consider `OCc1cc(N2C[C@H]3CCN[C@H]3C2)cnc1Br` [Example 64, [5-((3aR,6aR)-hexahydropyrrolo[3,4-b]pyrrol-5(1H)-yl)-2-bromo-3-pyridinyl]methanol fumarate], for which affinity in assay [1] was put at a Ki of 1100 pM. In the assay with Male Sprague-Dawley rats, the minimal effective dose was over 19 µmol/kg.
As for `C=Cc1cc(N2C[C@H]3CCN[C@H]3C2)cnc1Br` [Example 65, (3aR,6aR)-5-(6-bromo-5-vinyl-3-pyridinyl)octahydropyrrolo[3,4-b]pyrrole dihydrochloride], the affinity in assay [1] corresponds to a Ki of 3100 pM. Moreover, the minimal effective dose in the assay on Male Sprague-Dawley rats is over 19 µmol/kg.
`COCc1cc(N2C[C@H]3CCN[C@H]3C2)cnc1Br` [Example 67, (3aR,6aR)-5-[6-bromo-5-(methoxymethyl)-3-pyridinyl]octahydropyrrolo[3,4-b]pyrrole fumarate] had a Ki in assay [1] of 1000 pM. In addition, the minimal effective dose in the assay with Male Sprague-Dawley rats was determined as 19 µmol/kg.
In turn, `C#Cc1cncc(N2C[C@@H]3CNC[C@@H]32)c1` [Example 68, (1S,5R)-6-(5-ethynyl-3-pyridinyl)-3,6-diazabicyclo[3.2.0]heptane fumarate] came in with a Ki in assay [1] of 610 pM. Further, the minimal effective dose with Male Sprague-Dawley rats is over 19 µmol/kg.
In the same order, the values of `C=Cc1cncc(N2C[C@@H]3CNC[C@@H]32)c1` [Example 69, (1S,5R)-6-(5-vinyl-3-pyridinyl)-3,6-diazabicyclo[3.2.0]heptane fumarate] are 3200 pM and over 19 µmol/kg.
The molecule `N#Cc1cncc(N2C[C@@H]3CNC[C@@H]32)c1` [Example 70, 5-[(1S,5R)-3,6-diazabicyclo[3.2.0]hept-6-yl]nicotinonitrile fumarate] displayed a Ki in assay [1] of 860 pM. The minimal effective dose in the assay on Male Sprague-Dawley rats was over 19 µmol/kg.
The molecule `Brc1cncc(N2C[C@@H]3CNC[C@@H]32)c1` [Example 71, (1S,5R)-6-(5-bromo-3-pyridinyl)-3,6-diazabicyclo[3.2.0]heptane] showed a Ki in assay [1] of 1500 pM. Besides, the minimal effective dose in the assay on Male Sprague-Dawley rats is over 19 µmol/kg.
In the same order, the values of `C=Cc1cc(N2C[C@@H]3CNC[C@@H]32)cnc1Br` [Example 72, (1S,5R)-6-(6-bromo-5-vinyl-3-pyridinyl)-3,6-diazabicyclo[3.2.0]heptane fumarate] are 600 pM and over 19 µmol/kg.
In assay [1], `N#Cc1cncc(N2C[C@H]3CNC[C@H]32)c1` [Example 74, 5-[(1R,5S)-3,6-diazabicyclo[3.2.0]hept-6-yl]nicotinonitrile bis(4-methylbenzenesulfonate)] registered a Ki of 3200 pM. In addition, in the assay with Male Sprague-Dawley rats, the minimal effective dose is 1.9 µmol/kg.
In the same order, the values of `N#Cc1cc(N2C[C@H]3CNC[C@H]32)cnc1Br` [Example 76, 2-bromo-5-[(1R,5S)-3,6-diazabicyclo[3.2.0]hept-6-yl]nicotinonitrile fumarate] are 280 pM and 1.9 µmol/kg.
`Clc1cc(N2C[C@H]3CNC[C@H]32)cnc1Cl` [Example 85, (1R,5S)-6-(5,6-dichloro-3-pyridinyl)-3,6-diazabicyclo[3.2.0]heptane fumarate]: in assay [1], the Ki was found to be 270 pM. Besides, in the assay with Male Sprague-Dawley rats, the minimal effective dose is over 19 µmol/kg.
Taken in the same sequence, the figures for `COc1cncc(N2C[C@H]3CNC[C@H]32)c1` [Example 86, (1R,5S)-6-(5-methoxy-3-pyridinyl)-3,6-diazabicyclo[3.2.0]heptane 4-methylbenzenesulfonate] were 750 pM and over 19 µmol/kg.
In the same order, the values of `Cc1cc(N2C[C@H]3CNC[C@H]32)cnc1Cl` [Example 87, (1R,5S)-6-(6-chloro-5-methyl-3-pyridinyl)-3,6-diazabicyclo[3.2.0]heptane 4-methylbenzenesulfonate] are 200 pM and 6.2 µmol/kg.
